In brackets after ≈: the same amount, converted by molar mass.
conditions: buffer; pH 7.4; 200.0 µM

Row | SMILES | solubility kinetic
1 | Cc1ccc(SCCSc2ncccn2)cc1 | 1.7 µg/mL (≈ 6.48 µM)
2 | OCCNC(=S)NCc1ccccc1 | 31.5 µg/mL (≈ 150 µM)
3 | Cc1ccc(OCc2nc(C#N)c(N3CCCCC3)o2)cc1 | 4.9 µg/mL (≈ 16.5 µM)
4 | Cc1cc(C)c2oc(-c3cccc(N)c3)nc2c1 | 3 µg/mL (≈ 12.6 µM)
5 | CCOC(=O)C(=O)Nc1ncc(Cl)s1 | 34.2 µg/mL (≈ 146 µM)
6 | Cc1ccc2oc(C(=O)NCC3CCOCC3)c(C)c2c1 | 42.8 µg/mL (≈ 149 µM)
7 | CN(C)S(=O)(=O)c1ccc(C(=O)OCC(=O)N2CC3(C)CC2CC(C)(C)C3)cc1 (stereo not given) | > 63.4 µg/mL
8 | CC1CCCCC1NC(=O)CNC(=O)c1cccs1 (stereo not given) | > 42.1 µg/mL
9 | O=[N+]([O-])c1cc(S(=O)(=O)NC2=NCCCCC2)ccc1Cl | 39 µg/mL (≈ 118 µM)
10 | Cc1ccc(S(=O)(=O)N2CCN(c3ccccc3)CC2)s1 | 2.3 µg/mL (≈ 7.13 µM)
11 | CN(C)S(=O)(=O)N1CCC(CO)(CCc2ccccc2)CC1 | > 49 µg/mL
12 | O=C(C1CCC1)N1CCN(c2cccc(C(F)(F)F)c2)CC1 | 38.8 µg/mL (≈ 124 µM)
13 | COc1cc(CC(=O)OCC(=O)NC2CCCCCC2)cc(OC)c1OC | > 56.9 µg/mL
14 | COc1cc([N+](=O)[O-])ccc1NC(=O)N1CCCCCC1 | 32.1 µg/mL (≈ 109 µM)
15 | Cn1c(SCC(=O)NC2CC2)nnc1-c1ccccn1 | > 43.4 µg/mL
16 | CC1CCc2c(C(=O)NCc3ccco3)csc2C1 (stereo not given) | 34.9 µg/mL (≈ 127 µM)
17 | Clc1cc2nc[nH]c2cc1Cl | > 28.1 µg/mL
18 | Cc1ccccc1Sc1ncccc1[N+](=O)[O-] | 5.1 µg/mL (≈ 20.7 µM)
19 | Cn1c(=O)n(C)c2cc(S(=O)(=O)NCC(=O)O)ccc21 | > 44.9 µg/mL
20 | O=C1C(Cl)=C(N2CCCCCC2)C(=O)N1c1ccccc1Cl | 25.7 µg/mL (≈ 75.8 µM)
21 | c1ccc(-c2noc(C3CCC3)n2)nc1 | 20.6 µg/mL (≈ 102 µM)
22 | CCC(C)c1ccccc1NS(=O)(=O)c1cnn(CC)c1 (stereo not given) | > 46.1 µg/mL
23 | Cc1cc(C)c(C#N)c(N2CCN(c3ccccc3)CC2)n1 | 3.8 µg/mL (≈ 13 µM)
24 | Cc1ccc(C(C)C)cc1S(=O)(=O)NC1CC(C)(C)NC(C)(C)C1 | 35.2 µg/mL (≈ 99.8 µM)
25 | Cc1cccc(C)c1OCC1CNC(=O)O1 (stereo not given) | 24.8 µg/mL (≈ 112 µM)

Continued, values first:

Row | solubility kinetic | SMILES
26 | > 50.7 µg/mL | CN1C(=O)C(=O)/C(=C(/O)c2ccccc2)C1c1ccc([N+](=O)[O-])cc1 (stereo not given)
27 | 1.5 µg/mL (≈ 2.99 µM) | COc1ccc(NS(=O)(=O)c2cc(NC(=O)c3ccc(Cl)cc3)ccc2N2CCOCC2)cc1
28 | 34 µg/mL (≈ 105 µM) | CCOc1ccc(-c2ncncc2-c2ccccc2OC)c(O)c1
29 | 0.9 µg/mL (≈ 2.6 µM) | CC(C)c1ccc(NS(=O)(=O)c2ccc3c(c2)oc(=O)n3C)cc1
30 | > 45 µg/mL | COc1ccccc1CNC(=O)COC(=O)c1ccncc1
31 | < 0.7 µg/mL | O=C1/C(=C\c2cccc(O)c2)SC(=S)N1Cc1ccccc1
32 | > 45.9 µg/mL | CCOc1ccccc1NC(=O)COC(=O)C1CCC(=O)N1 (stereo not given)
33 | < 0.7 µg/mL | COc1ccc(NC(=O)c2ccccc2Oc2ccccc2)c(OC)c1
34 | > 30.6 µg/mL | O=C(O)C1=NN(c2ccccc2)C(=O)C1
35 | 43.9 µg/mL (≈ 136 µM) | O=C(Nc1ccc(Cl)c(Cl)c1)NC1CCS(=O)(=O)C1 (stereo not given)
36 | 51.3 µg/mL (≈ 118 µM) | Cc1ccc(SCC(=O)OCC(=O)NCCc2ccc(S(N)(=O)=O)cc2)c(C)c1
37 | 0.2 µg/mL (≈ 0.609 µM) | COc1ccc(Cl)cc1NC(=S)Nc1ccc(Cl)cn1
38 | > 41.6 µg/mL | CCN1C(=O)CCC(C(=O)O)C1c1ccc(OC)cc1 (stereo not given)
39 | 0.7 µg/mL (≈ 2.32 µM) | CC(C)CC(=O)c1c[nH]c(C(=O)NCc2ccc(F)cc2)c1
40 | > 36.3 µg/mL | CN(C)C(=O)c1cc(C(=O)c2ccccc2)c[nH]1
41 | 9.4 µg/mL (≈ 31 µM) | O=C(NCc1nc(-c2ccc(Cl)cc2)no1)c1ccco1
42 | < 0.6 µg/mL | O=S(=O)(c1ccc(Cl)c2ccccc12)N1CCCC1
43 | 42.9 µg/mL (≈ 132 µM) | CC(C)(C)c1ccc(C(=O)NCC(=O)NCc2ccccn2)cc1

Row | solubility kinetic | SMILES
44 | 2.4 µg/mL (≈ 7.13 µM) | CCOc1cccc2cc(C(=O)NCc3ccc(C)cc3)c(=N)oc12
45 | 35.2 µg/mL (≈ 149 µM) | COc1cccc(CNC(=S)NC2CC2)c1
46 | 43.6 µg/mL (≈ 129 µM) | O=C(CCCOc1ccc(Cl)cc1Cl)NCc1ccncc1
47 | 3.8 µg/mL (≈ 10.3 µM) | COc1cc(Nc2ccc(S(N)(=O)=O)cc2)c([N+](=O)[O-])nc1[N+](=O)[O-]
48 | > 52.4 µg/mL | CCNC(=O)Nc1ccc(S(=O)(=O)Nc2cnc(C)nc2C)cc1
49 | > 52.6 µg/mL | CC(CCc1ccccc1)NCC(O)c1cccc([N+](=O)[O-])c1.Cl (stereo not given)
50 | > 48.6 µg/mL | COc1ccc(NC(=O)CS(=O)c2cccc(Cl)c2)cc1 (stereo not given)
51 | 11.1 µg/mL (≈ 34.3 µM) | O=C(NCc1ccccc1)c1ccc(CSc2ccccc2)o1
52 | > 58.4 µg/mL | CCN(CC(=O)NCc1ccc(F)cc1)C(=O)COc1ccccc1[N+](=O)[O-]
53 | > 44.8 µg/mL | CCC(C)[C@H](NC(=O)NCc1ccc(Cl)cc1)C(=O)O (stereo not given in full)
54 | 42 µg/mL (≈ 140 µM) | O=C1CSC(c2ccc([N+](=O)[O-])cc2)N1c1ccccc1 (stereo not given)
55 | 36.1 µg/mL (≈ 135 µM) | COc1ccc(S(=O)(=O)Nc2cc(C)on2)cc1
56 | 52.7 µg/mL (≈ 146 µM) | COc1ccc(C(C)(C)C)cc1NC(=O)CCN1C(=O)NC(C)(C)C1=O
57 | 15.8 µg/mL (≈ 47.7 µM) | COc1ccc(C(=O)N(Cc2ccccc2)c2cccc(C)c2)cc1
58 | 45.9 µg/mL (≈ 129 µM) | CC(Oc1ccc(Br)cc1Cl)C(=O)Nc1ccncc1 (stereo not given)
59 | > 48.2 µg/mL | O=C(COc1ccccc1C(=O)O)Nc1cccc2ccccc12
60 | 43.7 µg/mL (≈ 148 µM) | NC(=O)c1oc2ccccc2c1NC(=O)Cc1ccccc1
